Assay results: US20260193268A1, “TRICYCLIC PI3Ka INHIBITOR, PREPARATION METHOD THEREFOR, AND PHARMACEUTICAL USE THEREOF” (WIGEN BIOMEDICINE TECHNOLOGY (SHANGHAI) CO., LTD., priority 2022, published 2026)
Like-named read-outs stand apart in the source and are kept apart here.

Columns and labels:
[1] = system: HCC1954 cells (with PI3Kα H1047R mutation); assay: In vitro inhibition of HCC1954 cell proliferation (CellTiter-Lumi); type: cell-based; conditions: Homo sapiens, HCC1954, 144 h, HCC1954 cells, 144 h, CellTiter-Lumi
Experimental: Assay for In Vitro Inhibition of HCC1954 Cell Proliferation by Compounds of the Present Disclosure
The growth of the cells was evaluated, and the IC50 for the inhibition of cell growth by the compounds was calculated.

[2] = system: MCF-7 cells (with PI3Kα E545K mutation); assay: In vitro inhibition of MCF-7 cell proliferation (CellTiter-Lumi); type: cell-based; conditions: Homo sapiens, MCF7, 144 h
Summary of the method: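 Growth IC50 derived from ATP luminescence (CellTiter-Lumi) after 144 h exposure of MCF-7 cells carrying PI3Kα E545K, plated 2000 cells/well and dosed with serial dilutions one day after seeding.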

[3] = class symbols, read-out: Inhibitory activity against HCC1954 cells (IC50), class symbols
[4] = class symbols, read-out: Inhibitory activity against MCF-7 cells (IC50), class symbols
[5] = numeric values, read-out: Inhibitory activity against HCC1954 cells (IC50)
[6] = numeric values, read-out: Inhibitory activity against MCF-7 cells (IC50)

For `C=CC(=O)Nc1ccc(N2CC(C#Cc3ccc4c(c3)-c3nc(N5C(=O)OC[C@H]5C(F)F)cn3CCO4)C2)cc1` [Compound 203], the IC50 [1, 3] was 50 to 100 nM and the IC50 [2, 4] was < 50 nM.
An IC50 [1, 5] of 63 nM and an IC50 [2, 6] of 7 nM were found for `C=CC(=O)Nc1ccc(CCN2CCN(c3ccc4c(c3)-c3nc(N5C(=O)OC[C@H]5C(F)F)cn3CCO4)CC2)cc1` [Compound 16] in this work.
An IC50 [1, 5] of 77 nM and an IC50 [2, 6] of 17 nM were found for `NC/C=C/C(=O)Nc1ccc(N2CC(N3CCN(c4ccc5c(c4)-c4nc(N6C(=O)OC[C@H]6C(F)F)cn4CCO5)CC3)C2)cc1` [Compound 170] in this work.
`N#CC(=Cc1ccccc1)C(=O)Nc1ccc(N2CC(N3CCN(c4ccc5c(c4)-c4nc(N6C(=O)OC[C@H]6C(F)F)cn4CCO5)CC3)C2)cc1` [Compound 394] was tested, and the IC50 [1, 3] was < 50 nM and the IC50 [2, 4] was < 50 nM.
With `CC(C)(O)C=C(C#N)C(=O)Nc1ccc(N2CC(N3CCN(c4ccc5c(c4)-c4nc(N6C(=O)OC[C@H]6C(F)F)cn4CCO5)CC3)C2)c(F)c1` [Compound 230] the IC50 [1, 3] was < 50 nM and the IC50 [2, 4] was < 50 nM.
In the case of `CC(C)(N)C=C(C#N)C(=O)Nc1ccc(N2CC(N3CCN(c4ccc5c(c4)-c4nc(N6C(=O)OC[C@H]6C(F)F)cn4CCO5)CC3)C2)c(F)c1` [Compound 224], the IC50 [1, 3] is reported as < 50 nM and the IC50 [2, 4] is reported as < 50 nM.
`N#CC(=CC1CCCN1)C(=O)Nc1ccc(N2CC(N3CCN(c4ccc5c(c4)-c4nc(N6C(=O)OC[C@H]6C(F)F)cn4CCO5)CC3)C2)cc1` (some centres unmarked) [Compound 214] was tested, and the IC50 [1, 3] was < 50 nM and the IC50 [2, 4] was < 50 nM.
An IC50 [1, 5] of 249 nM and an IC50 [2, 6] of 321 nM were found for `CC(C)=CC(=O)CCCCC(=O)N1CCN(c2ccc3c(c2)-c2nc(N4C(=O)OC[C@H]4C(F)F)cn2CCO3)CC1` [Compound 158] in this work.
In the case of `CC(C)(C)C=C(C#N)C(=O)Nc1ccc(N2CC(N3CCN(c4cc5c(cc4F)OCCn4cc(N6C(=O)OC[C@H]6C(F)F)nc4-5)CC3)C2)cc1` [Compound 315], the IC50 [1, 3] is reported as < 50 nM and the IC50 [2, 4] is reported as < 50 nM.
An IC50 [1, 5] of 1 nM and an IC50 [2, 6] of 0.1 nM were found for `C=CC(=O)N1CCc2nc(N3CC(N4CCN(c5ccc6c(c5)-c5nc(N7C(=O)OC[C@H]7C(F)F)cn5CCO6)CC4)C3)ccc21` [Compound 169] in this work.
For `Cc1nc(-c2cn3c(n2)-c2cc(N4CCN(C5CN(c6ccc(NC(=O)C(C#N)=CC(C)(C)NC(=O)OC(C)(C)C)cn6)C5)CC4)ccc2OCC3)n(C(C)C)n1` [Compound 372], the IC50 [1, 3] was < 50 nM and the IC50 [2, 4] was < 50 nM.
In the case of `CNC1(C=C(C#N)C(=O)Nc2ccc(N3CC(N4CCN(c5ccc6c(c5)-c5nc(N7C(=O)OC[C@H]7C(F)F)cn5CCO6)CC4)C3)c(F)c2)CC1` [Compound 237], the IC50 [1, 3] is reported as < 50 nM and the IC50 [2, 4] is reported as < 50 nM.
An IC50 [1, 5] of 1610 nM and an IC50 [2, 6] of 216 nM were found for `Cc1nc(NC(=O)N2CCC[C@H]2C(N)=O)sc1-c1ccnc(C(C)(C)C(F)(F)F)c1` [Alpelisib, reference compound] in this work.
With `N#CC(=CC1(NC2COC2)CCC1)C(=O)Nc1ccc(N2CC(N3CCN(c4ccc5c(c4)-c4nc(N6C(=O)OC[C@H]6C(F)F)cn4CCO5)CC3)C2)cc1` [Compound 388] the IC50 [1, 3] was < 50 nM and the IC50 [2, 4] was < 50 nM.
With `CN(C(=O)OC(C)(C)C)C(C)(C)C=C(C#N)C(=O)Nc1ccc(N2CC(N3CCN(c4ccc5c(c4)-c4nc(N6C(=O)OC[C@H]6C(F)F)cn4CCO5)CC3)C2)cc1` [Compound 335] the IC50 [1, 3] was < 50 nM and the IC50 [2, 4] was < 50 nM.
An IC50 [1, 5] of 49 nM and an IC50 [2, 6] of 9.7 nM were found for `C#CC(=O)Nc1ccc(N2CC(N3CCN(c4ccc5c(c4)-c4nc(N6C(=O)OC[C@H]6C(F)F)cn4CCO5)CC3)C2)cc1` [Compound 152] in this work.
An IC50 [1, 5] of 5.3 nM and an IC50 [2, 6] of 0.9 nM were found for `C=CC(=O)Nc1ccc(N2CC(N3CCN(c4ccc5c(c4)-c4nc(N6C(=O)OC[C@H]6C(F)F)cn4CCO5)CC3)C2)c(F)c1` [Compound 123] in this work.
An IC50 [1, 5] of 620 nM and an IC50 [2, 6] of 23 nM were found for `C=CC(=O)N1CCC(N2CC(N3CCN(c4ccc5c(c4)-c4nc(N6C(=O)OC[C@H]6C(F)F)cn4CCO5)CC3)C2)CC1` [Compound 105] in this work.
An IC50 [1, 5] of 184 nM and an IC50 [2, 6] of 19 nM were found for `C=CC(=O)Nc1ccc(CN2CC3(CCN(c4ccc5c(c4)-c4nc(N6C(=O)OC[C@H]6C(F)F)cn4CCO5)CC3)C2)cc1` [Compound 43] in this work.
With `CC(C)(C=C(C#N)C(=O)Nc1ncc(N2CC(N3CCN(c4ccc5c(c4)-c4nc(N6C(=O)OC[C@H]6C(F)F)cn4CCO5)CC3)C2)cn1)NC1COC1` [Compound 293] the IC50 [1, 3] was < 50 nM and the IC50 [2, 4] was < 50 nM.
With `CC(C)(C)C=C(C#N)C(=O)Nc1ccc(N2CC(N3CCN(c4ccc5c(c4)-c4nc(N6C(=O)OC[C@H]6C(F)F)cn4CCO5)CC3)C2)c(F)c1` [Compound 223] the IC50 [1, 3] was < 50 nM and the IC50 [2, 4] was < 50 nM.
`CC1(C=C(C#N)C(=O)Nc2ccc(N3CC(N4CCN(c5ccc6c(c5)-c5nc(N7C(=O)OC[C@H]7C(F)F)cn5CCO6)CC4)C3)c(F)c2)COC1` [Compound 233] was tested, and the IC50 [1, 3] was < 50 nM and the IC50 [2, 4] was < 50 nM.
